Data taken from US9119845B2, “Method for the treatment of neurological disorders by enhancing the activity of beta-glucocerebrosidase” (Amicus Therapeautics, Inc., priority 2006, dated 2015).
pIC50: −log10 of the molar value. Counter-ions that a name gives are not always drawn. Like-named read-outs stand apart in the source and are kept apart here. Values belong to the compound of their own block, whether it stands above or below them.

Columns and labels:
GCase [1] = biological target: T1, GCase (Homo sapiens (Human), UniProt P04062); test: biochemical
T1 sequence (P04062 40-536): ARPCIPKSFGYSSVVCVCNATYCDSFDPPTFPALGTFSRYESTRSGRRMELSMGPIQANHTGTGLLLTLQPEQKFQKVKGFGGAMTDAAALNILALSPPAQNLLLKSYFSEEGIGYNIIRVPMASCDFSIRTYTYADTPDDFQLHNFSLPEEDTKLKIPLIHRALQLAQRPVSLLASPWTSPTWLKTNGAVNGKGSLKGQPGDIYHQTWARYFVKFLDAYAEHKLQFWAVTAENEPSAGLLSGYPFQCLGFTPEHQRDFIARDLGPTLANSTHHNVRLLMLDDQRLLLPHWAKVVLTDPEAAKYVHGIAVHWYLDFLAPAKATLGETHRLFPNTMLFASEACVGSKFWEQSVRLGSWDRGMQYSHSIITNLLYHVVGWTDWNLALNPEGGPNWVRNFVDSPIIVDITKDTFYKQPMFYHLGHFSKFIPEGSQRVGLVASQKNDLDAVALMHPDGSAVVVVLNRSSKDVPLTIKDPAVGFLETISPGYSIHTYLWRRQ

GCase [2] = biological target: T1, GCase; conditions: read-out: IC50 for GCase; printed in synthesis headings
α-synuclein [3] = test: α-synuclein accumulation in brains of V394L homozygous knock-in mice treated with CBE; format: in vivo, mouse; conditions: CBE daily intraperitoneally for 30 days
Protocol: Mice homozygous for the point mutations D409H or V394L and expressing a low level of saposin C in a prosaposin knock-out background, were analyzed for accumulation of α-synuclein in the brain. These mice have been reported to accumulate glucosylceramide in the brain. Mice homozygous for the point mutations V394L only, were analyzed for α-synuclein accumulation with and without CBE treatment. […] Mice were administered CBE daily by interperitonally injection for 30 consequitive days ([…] calculated from the total weight of the mouse) and brains were analyzed by immunohistochemistry for accumulation of α-synuclein.
Brain tissue was frozen and fixed for immunohistochemistry with 4% paraformaldehyde and serial sections were co-labelled with anti-human α-synuclein (ab1903; Abcam, Cambridge, Mass.) and rabbit anti-ubiquitin (ab7780; Abcam, Cambridge, Mass.).

α-galactosidase A = α-galactosidase A (Homo sapiens (Human), UniProt P06280); conditions: healthy volunteers, 50 mg b.i.d. and 150 mg b.i.d.; cited from earlier work
α-galactosidase A, sequence (P06280 32-429): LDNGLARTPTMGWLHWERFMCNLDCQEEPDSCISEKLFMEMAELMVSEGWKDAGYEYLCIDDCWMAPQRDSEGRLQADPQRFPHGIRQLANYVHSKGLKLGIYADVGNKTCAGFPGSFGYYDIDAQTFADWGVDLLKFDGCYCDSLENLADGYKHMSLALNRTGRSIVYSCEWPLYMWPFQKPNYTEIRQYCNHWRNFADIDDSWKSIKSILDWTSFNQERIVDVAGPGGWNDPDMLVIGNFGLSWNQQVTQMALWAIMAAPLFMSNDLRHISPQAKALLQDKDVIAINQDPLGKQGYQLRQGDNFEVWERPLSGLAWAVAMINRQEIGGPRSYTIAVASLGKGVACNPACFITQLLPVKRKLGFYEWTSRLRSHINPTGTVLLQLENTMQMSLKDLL

wild-type GCase = wild-type GCase (Mus musculus (Mouse), UniProt P17439); test: In vivo GCase activity in normal C57BL6 mice upon treatment with IFG
wild-type GCase, sequence (P17439 20-515): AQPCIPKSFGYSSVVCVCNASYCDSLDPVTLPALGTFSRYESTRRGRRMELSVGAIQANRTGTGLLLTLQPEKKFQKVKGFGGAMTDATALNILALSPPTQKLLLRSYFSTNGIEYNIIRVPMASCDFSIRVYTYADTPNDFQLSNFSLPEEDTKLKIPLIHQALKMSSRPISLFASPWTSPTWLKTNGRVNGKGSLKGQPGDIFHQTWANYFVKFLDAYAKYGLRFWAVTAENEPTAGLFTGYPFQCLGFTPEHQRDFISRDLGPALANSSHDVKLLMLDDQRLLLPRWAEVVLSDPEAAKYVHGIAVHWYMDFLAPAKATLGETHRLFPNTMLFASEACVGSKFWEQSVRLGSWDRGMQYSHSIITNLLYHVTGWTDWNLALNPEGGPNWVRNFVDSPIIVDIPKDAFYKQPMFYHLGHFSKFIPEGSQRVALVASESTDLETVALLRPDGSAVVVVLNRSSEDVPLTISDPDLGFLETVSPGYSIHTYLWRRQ
Protocol: This Example provides information on the effects of isofagomine, a GCase-specific chaperone on mice. IFG were administered to the mice at 200 mg/kg/day; organs and plasma were collected 4 weeks after initiation of the study. Ten male C57BL6 (25 g) mice per group were used. The drug was be given in the drinking water, therefore water consumption was monitored daily.
In the control group (0 mg/kg/day), the mice were dosed daily in the drinking water (no drug) and divided into two groups. Ten animals were euthanized after 4 weeks of treatment, blood was collected from the descending aorta or vena cava, and tissues were harvested and then necropsied.
In the test group, 10 mice were dosed daily in the drinking water with an administration aim of 200 mg/kg/day.
The blood samples were drawn into lithium heparin and spun for plasma. After bleeding, the spleen, lung, brain and liver were removed and placed into vials. The vials were put into dry ice for rapid freezing. The tissues and plasma were then analyzed for tissue levels of GCase.
Small portions of tissue were removed and added to 500 μl lysis buffer (20 mM sodium citrate and 40 mM disodium hydrogen phosphate, pH 4.0, including 0.1% Triton X-100). Tissues were then homogenized using a microhomogenizer for a brief time, followed by centrifugation at 10,000 rpm for 10 minutes at 4° C. Supernatants were transferred to a new tube and used for the enzyme assay.
The enhancement ratio is equal to the activity with the compound over the activity without the compound.

[4] = Phase I studies in healthy volunteers: pharmacokinetics of oral IFG tartrate; format: in vivo, human; conditions: for half-life: both sexes, human, plasma
Protocol: (§1) In a first-in-human single ascending dose study (1a), doses of 8, 25, 75, 150 (two cohorts), and 300 mg were administered (6 active, 2 placebo in each cohort). In a multiple ascending dose study (1b), doses of 25, 75, and 225 mg were administered daily for seven days (6 active, 2 placebo in each cohort). In both studies, of the eight subjects in each group; six were randomized to receive IFG tartrate, and two subjects received placebo. Subjects were confined from the evening of day-1 until 24 hrs after completion of dosing. In the phase 1a study subjects returned at 48 hrs (PK sampling) and 7 days (safety follow-up) following dosing. In the phase 1b study subjects returned at 48 h (PD sampling), 7 days (PD sampling and safety follow-up), and 14 days (PD sampling) following the last dose
Subjects were healthy male and female volunteers between 19 and 55 years of age (inclusive) consisting of members of the community at large.
Blood samples (10 mL each) were collected in blood collection tubes containing EDTA before dosing was determined at regular intervals for the phas 1a during 48 hr following dosing. In the phase 1b study a full IFG tartrate pharmacokinetic profile was determined for 24 hr following the first dose, Cmin values were obtained pre-dose on day 6 and 7, and another full profile was determined for 24 hr following the final, day 7, dose.
(§2) GCase activity was determined pre-dose on days 1, 3, 5, 7, 9, 14, and 21. Blood samples were cooled in an ice bath and centrifuged under refrigeration as soon as possible. Plasma samples were divided into two aliquots and stored at […] pending assay. At the end of the study, all samples were transferred to MDS Pharma Services Analytical Laboratories (Lincoln) for analysis.

GCase [5] = biological target: T1, GCase; test: Phase I multiple-dose study: GCase enzymatic activity in healthy volunteers; format: in vivo; conditions: dose-related, during treatment period, FIG. 2
Protocol: as §1, §2

α-synuclein [6] = test: α-synuclein immunohistochemistry in brains of transgenic mice over-expressing human α-synuclein; format: in vivo, mouse
Protocol: 48 transgenic animals (male and female) were allocated to 6 groups (n=8) at an age of 5 to 6 weeks concerning baseline and 3 to 4 weeks, respectively concerning all other treatment groups at treatment start. One group of transgenic animals served as baseline group (5 weeks old) and was sacrificed untreated on day 0. One group of transgenic animals was treated with vehicle.
Mice (ages 3-4 weeks) were treated once daily (orally) at either 2 mg/kg; 20 mg/kg; or 200 mg/kg of IFG tartrate for 3 months. One group also was treated once every other day at 20 mg/kg.
Animals of the baseline group were sacrificed at an age of 5 weeks. All other animals were sacrificed at the end of the 3 months treatment period and blood for preparation of serum and macrophages as well as lung, brain and CSF were extracted. Therefore, all mice were sedated by standard inhalation anesthesia (Isofluran, Baxter). Cerebrospinal fluid was obtained by blunt dissection and exposure of the foramen magnum. Upon exposure, a Pasteur pipette was inserted to the approximate depth of 0.3-1 mm into the foramen magnum. CSF was collected by suctioning and capillary action until flow fully ceases. CSF was immediately frozen and kept at −80° C.
The brains were removed and hemisected. The right hemispheres of all mice were immersion fixed in freshly produced 4% paraformaldehyde/PBS (pH 7.4) for one hour at room temperature. Thereafter brains were transferred to a 15% sucrose PBS solution for 24 hours to ensure cryoprotection. On the next day brains were frozen in liquid isopentane and stored at −80° C. until used for histological investigations. To determine the effects of the IFG-tartrate treatment from 8 animals per group 10 μm-thick cryosections were cut for determination of alpha-synuclein pathology. All organs and tissues mentioned were sampled and from specific brain regions i.e. hippocampus, midbrain, frontal cortex and striatum of one hemibrain were extracted and frozen. The other brain half was processed for histological evaluation.
For evaluation of the number of α-synuclein positive cells and Lewy body like inclusions an immunohistochemical staining was carried out using the monoclonal human alpha-synuclein specific antibody (Alexis®; Cat #804-258-L001), dilution 1:5, detected with secondary Cy2 antibody (Jackson Immunoresearch®). The number of alpha-synuclein positive cells in five different layers, one slice per layer, was counted for evaluation in the whole hippocampus and cortex separately.
Briefly, samples were washed for 10 min with PBS at room temperature, followed by fixing for 30 min at room temperature with 4% paraformaldehyde, followed by washing 2 times for 5 min each with PBS at room temperature. For Proteinase K-treated sections, sections were incubated in PBS containing 10 μg/ml proteinase-K for 10 minutes at room temperature. Next, samples were incubated for 15 min at room temperature with blocking solution to block endogenous peroxidase, followed by two more 5 min washes with PBS. Samples were then incubated for 60 min at room temperature with a blocking reagent to block non-specific binding, followed by two more 5 min washes with PBS. Samples were then incubated with M.O.M. diluent for 5 min at room temperature, followed by incubation with the primary antibody (dilution 1:5 in M.O.M. diluent) for 60 min with at room temperature.
After an hour, samples were washed 2 times for 5 min with PBS at room temperature, and incubated for another 60 min at room temperature with blocking reagent. Following two washes, samples were incubated with secondary Ab Cy 2-Goat Anti-Rat (Dilution 1:200 in M.O.M.) for 60 minutes at room temperature, in the absence of light. Samples were then washed for 5 min with PBS, for 5 min with sterile, molecular-biology grade water, and covered with polyvinyl alcohol.
For evaluation of the α-synuclein immunoreactivity, specialized image analysis software (Image Pro Plus, version 4.5.1.29) was used. […]

[7] = Phase I studies in healthy volunteers: safety and tolerability; format: in vivo, human; conditions: both Phase I studies
Protocol: as §1, with “last dose […]” for “last dose”
Safety was determined by evaluating vital signs, laboratory parameters (serum chemistry, hematology, and urinalysis), physical examination and by recording adverse events during the Treatment Period.
Safety data including laboratory evaluations, physical exams, adverse events, ECG monitoring and vital signs assessments were summarized by treatment group and point of time of collection. Descriptive statistics (arithmetic mean, standard deviation, median, minimum and maximum) were calculated for quantitative safety data as well as for the difference to baseline. […]

[8] = normal C57BL6 mice, 200 mg/kg/day in drinking water, FIG. 1

pIC50 (GCase [1]): ~10.52
SMILES: CC(C)(C)CCc1cn2c(n1)[C@H](O)[C@@H](O)[C@H](O)[C@H]2CO [(5R,6R,7S,8S)-5-Hydroxymethyl-2-(3,3-dimethylbutyl)-5,6,7,8-tetrahydro-imidazo[1,2-a]pyridine-6,7,8-triol]

GCase levels in brain (wild-type GCase; [8]): increased | GCase levels in liver (wild-type GCase; [8]): increased | GCase levels in lung (wild-type GCase; [8]): increased | GCase levels in spleen (wild-type GCase; [8]): increased | wild-type GCase activity, dose response (wild-type GCase; separate experiment, mice treated with 0, 1, 10, or 100 mg/kg/day): linear dose-response increase | half-life ([4]; oral, repeated doses of 25 to 225 mg, read-out: mean half-lives): 5.14 to 19.9 h | accumulation based on AUC and Cmax comparisons on Day 1 and Day 7 ([4]; repeated doses of 25 to 225 mg): Minimal accumulation | increase in GCase enzyme levels above baseline (GCase [5]): approximately 3.5 fold
SMILES: OC[C@H]1CNC[C@@H](O)[C@@H]1O [IFG, (3R,4R,5R)-5-(hydroxymethyl)-3,4-piperidinediol]

half-life ([4]; single-dose study, oral, read-out: plasma elimination half-life (converted)): 14 h | systemic exposure via the oral route ([4]; healthy volunteers, oral): good systemic exposure | time at which mean plasma levels peaked ([4]; single-dose study, oral): 3.4 h
SMILES: OC[C@H]1CNC[C@@H](O)[C@@H]1O [isofagomine tartrate]
α-synuclein positive cell load versus baseline, both regions averaged (α-synuclein [6]; 2 mg/kg daily for 3 months, p>0.05 versus baseline): prevented mice from the age-accompanied increase of pathology | number of α-synuclein immunoreactive cells in the hippocampus versus vehicle-treated controls (α-synuclein [6]; 2 mg/kg once daily orally for 3 months, p<0.05, FIG. 6B): reduced the number of immunoreactive cells in the hippocampus significantly | α-synuclein pathology versus controls at 20 mg dose (α-synuclein [6]; 20 mg/kg daily or every other day for 3 months): not effective versus controls | accumulation of Proteinase K resistant α-synuclein aggregates (α-synuclein [6]; 20 mg/kg, 3 months, single responding animal, FIG. 5): prevents the accumulation of these α-synuclein aggregates | qualitative α-synuclein staining in cortex and hippocampus (α-synuclein [6]; 2 and 20 mg/kg b.w. daily, some of the treated animals, FIGS. 3 and 4): strongly decreased background and decreased α-synuclein positive cell numbers | α-synuclein pathology in the cortex (α-synuclein [6]; oral treatment for 3 months, FIG. 6A): did not reach significance level | pharmacokinetic behavior and accumulation after 7 days of oral administration ([4]; multiple-dose study, 25, 75, 225 mg daily for seven days): linear with dose, with no unexpected accumulation | plasma AUC and Cmax versus dose ([4]; single-dose study, 8 to 300 mg oral): linearly correlated with administered dose | serious adverse events [7]: No serious adverse events occurred | tolerability ([7]; all doses): generally well tolerated

Second part, the compound before the results:

SMILES: CCCCCCCCc1cn2c(n1)[C@H](O)[C@@H](O)[C@H](O)[C@H]2CO [(5R,6R,7S,8S)-5-Hydroxymethyl-2-n-octyl-5,6,7,8-tetrahydroimidazo[1,2-a]pyridine-6,7,8-triol]
pIC50 (GCase [1]): ~10.15

SMILES: CC(C)(C)C#Cc1cn2c(n1)[C@H](OCc1ccccc1)[C@@H](OCc1ccccc1)[C@H](OCc1ccccc1)[C@H]2COCc1ccccc1 [(5R,6R,7S,8S)-6,7,8-Tris(benzyloxy)-5-[(benzyloxy)methyl]-2-(3,3-dimethylbyt-1-ynyl)-5,6,7,8-tetrahydroimidazo[1,2-a]pyridine]
pIC50 (GCase [2]): ~8.96

SMILES: O[C@H]1[C@H](O)[C@@H](O)[C@@H]2O[C@@H]2[C@@H]1O [CBE, conduritol-β-epoxide]
α-synuclein in the brain (α-synuclein [3]): resulted in accumulation of α-synuclein in the brain

SMILES: OC[C@H]1NC[C@H](O)[C@@H](O)[C@H]1O [DGJ, 1-deoxygalactonojirimycin]
α-galactosidase A activity in white blood cells (α-galactosidase A): dose-dependent increase
